This data set is described as follows: Metabolic stability in plasma. Type of data set: in vitro ADME, CD-1 mouse. The conditions noted are these: CD-1, plasma; Mouse; test conc. 3 μM.

In the case of `CCC(=O)N[C@H]1Cc2cccc(C(=O)O)c2OB1O` [Compound 2, (R)-2-hydroxy-3-propionamido-3,4-dihydro-2H-benzo[e][1,2]oxaborinine-8-carboxylic acid], the half-life (commonly the time in which the quantity being followed falls by half) at 3 μM was greater than 2 h.

(Values after US12544395B2, “Combination compositions comprising a beta-lactamase inhibitor and uses thereof” (priority 2018, dated 2026).)
